From ChEMBL document CHEMBL5291721, “A preclinical secondary pharmacology resource illuminates target-adverse drug reaction associations of marketed drugs” (Nat Commun, 2023)

Assays:
[1] = target: T1, Adenosine receptor A3 (Homo sapiens, UniProt P0DMS8)
T1 sequence (P0DMS8 whole entry): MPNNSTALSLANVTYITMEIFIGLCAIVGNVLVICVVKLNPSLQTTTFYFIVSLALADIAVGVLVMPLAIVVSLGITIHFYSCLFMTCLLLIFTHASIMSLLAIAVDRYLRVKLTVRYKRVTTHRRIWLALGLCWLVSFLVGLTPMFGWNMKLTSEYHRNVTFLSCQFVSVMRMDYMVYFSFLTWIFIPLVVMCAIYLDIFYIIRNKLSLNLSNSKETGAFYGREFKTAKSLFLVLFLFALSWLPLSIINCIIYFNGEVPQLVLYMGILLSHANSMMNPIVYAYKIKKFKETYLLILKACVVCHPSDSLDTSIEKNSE

[2] = target: cGMP-inhibited 3',5'-cyclic phosphodiesterase 3A (Homo sapiens, UniProt Q14432); type: functional
[3] = target: T2, Adenosine receptor A1 (Homo sapiens, UniProt P30542)
T2 sequence (P30542 whole entry): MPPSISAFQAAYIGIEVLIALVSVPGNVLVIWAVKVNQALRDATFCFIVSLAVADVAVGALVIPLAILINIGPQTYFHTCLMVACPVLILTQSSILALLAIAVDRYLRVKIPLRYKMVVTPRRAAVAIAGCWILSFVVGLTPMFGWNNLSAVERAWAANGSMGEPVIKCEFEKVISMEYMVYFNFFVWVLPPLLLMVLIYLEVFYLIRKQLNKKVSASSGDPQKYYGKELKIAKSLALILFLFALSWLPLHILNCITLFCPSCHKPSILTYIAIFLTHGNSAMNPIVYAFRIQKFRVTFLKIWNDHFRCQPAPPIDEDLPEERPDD

[4] = target: T3, Alpha-2A adrenergic receptor (Homo sapiens, UniProt P08913); type: functional, cell-based
T3 sequence (P08913 whole entry): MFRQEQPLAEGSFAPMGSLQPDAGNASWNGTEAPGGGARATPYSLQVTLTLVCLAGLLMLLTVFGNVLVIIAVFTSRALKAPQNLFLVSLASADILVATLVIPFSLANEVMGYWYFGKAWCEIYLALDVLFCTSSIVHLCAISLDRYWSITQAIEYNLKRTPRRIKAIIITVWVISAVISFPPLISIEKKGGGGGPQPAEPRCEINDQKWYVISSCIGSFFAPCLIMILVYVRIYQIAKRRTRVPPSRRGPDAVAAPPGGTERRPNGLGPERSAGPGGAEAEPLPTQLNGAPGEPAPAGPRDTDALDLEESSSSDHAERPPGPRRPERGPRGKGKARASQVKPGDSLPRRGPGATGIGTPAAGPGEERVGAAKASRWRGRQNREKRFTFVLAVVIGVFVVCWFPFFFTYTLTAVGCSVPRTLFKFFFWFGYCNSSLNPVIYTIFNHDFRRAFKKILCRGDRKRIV

[5] = target: Histamine H3 receptor (Homo sapiens, UniProt Q9Y5N1)
[6] = target: Adenosine receptor A2a (Homo sapiens, UniProt P29274)
[7] = target: T4, Neuropeptide Y receptor type 1 (Homo sapiens, UniProt P25929)
T4 sequence (P25929 whole entry): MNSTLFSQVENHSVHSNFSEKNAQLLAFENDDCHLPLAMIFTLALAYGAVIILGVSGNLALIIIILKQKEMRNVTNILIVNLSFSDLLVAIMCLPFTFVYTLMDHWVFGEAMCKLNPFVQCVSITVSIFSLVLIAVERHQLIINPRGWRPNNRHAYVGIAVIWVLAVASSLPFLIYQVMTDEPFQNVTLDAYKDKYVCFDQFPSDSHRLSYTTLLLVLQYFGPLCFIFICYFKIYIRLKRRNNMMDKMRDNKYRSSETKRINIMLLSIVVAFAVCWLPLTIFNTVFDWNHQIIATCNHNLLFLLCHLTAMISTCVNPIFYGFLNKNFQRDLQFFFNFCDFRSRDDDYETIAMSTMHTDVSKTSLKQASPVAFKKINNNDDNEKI

[8] = target: T5, Progesterone receptor (Homo sapiens, UniProt P06401); type: functional
T5 sequence (P06401 whole entry): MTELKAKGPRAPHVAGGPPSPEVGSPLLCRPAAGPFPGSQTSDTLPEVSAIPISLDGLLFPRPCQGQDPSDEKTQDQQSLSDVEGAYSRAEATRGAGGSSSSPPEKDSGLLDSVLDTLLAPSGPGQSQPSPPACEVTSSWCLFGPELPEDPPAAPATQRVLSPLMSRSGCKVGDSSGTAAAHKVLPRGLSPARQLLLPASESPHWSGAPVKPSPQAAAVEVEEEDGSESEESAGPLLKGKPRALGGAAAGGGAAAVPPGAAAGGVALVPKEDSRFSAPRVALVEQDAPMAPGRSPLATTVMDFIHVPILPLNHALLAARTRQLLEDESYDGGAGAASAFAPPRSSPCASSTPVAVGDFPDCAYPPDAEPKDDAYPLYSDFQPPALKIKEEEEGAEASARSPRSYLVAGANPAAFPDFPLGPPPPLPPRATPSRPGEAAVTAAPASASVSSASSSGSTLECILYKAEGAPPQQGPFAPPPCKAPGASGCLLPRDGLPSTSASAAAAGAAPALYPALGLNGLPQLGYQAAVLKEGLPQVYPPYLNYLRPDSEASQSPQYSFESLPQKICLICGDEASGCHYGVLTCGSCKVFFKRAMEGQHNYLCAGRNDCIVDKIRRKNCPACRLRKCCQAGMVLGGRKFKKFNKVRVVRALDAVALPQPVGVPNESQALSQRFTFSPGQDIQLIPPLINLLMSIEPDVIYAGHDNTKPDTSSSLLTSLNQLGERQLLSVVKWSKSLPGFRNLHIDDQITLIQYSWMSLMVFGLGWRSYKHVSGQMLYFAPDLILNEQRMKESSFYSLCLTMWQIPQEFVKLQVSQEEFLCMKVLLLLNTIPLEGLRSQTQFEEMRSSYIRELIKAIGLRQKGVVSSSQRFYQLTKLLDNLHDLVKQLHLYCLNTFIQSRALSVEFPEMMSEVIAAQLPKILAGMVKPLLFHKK

[9] = target: Vasopressin V2 receptor (Homo sapiens, UniProt P30518)
Note: assay procedure not described here.

Sequence of Vasopressin V2 receptor (P30518 whole entry): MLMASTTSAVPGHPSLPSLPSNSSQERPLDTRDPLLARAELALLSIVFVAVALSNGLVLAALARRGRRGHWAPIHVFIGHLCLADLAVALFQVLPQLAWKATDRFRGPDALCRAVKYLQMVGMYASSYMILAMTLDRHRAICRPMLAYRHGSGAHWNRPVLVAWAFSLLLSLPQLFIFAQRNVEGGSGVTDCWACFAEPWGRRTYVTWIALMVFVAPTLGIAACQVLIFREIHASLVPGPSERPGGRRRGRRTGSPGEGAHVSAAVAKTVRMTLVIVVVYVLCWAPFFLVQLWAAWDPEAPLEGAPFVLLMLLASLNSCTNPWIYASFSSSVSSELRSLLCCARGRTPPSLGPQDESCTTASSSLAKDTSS
Sequence of cGMP-inhibited 3',5'-cyclic phosphodiesterase 3A (Q14432 whole entry): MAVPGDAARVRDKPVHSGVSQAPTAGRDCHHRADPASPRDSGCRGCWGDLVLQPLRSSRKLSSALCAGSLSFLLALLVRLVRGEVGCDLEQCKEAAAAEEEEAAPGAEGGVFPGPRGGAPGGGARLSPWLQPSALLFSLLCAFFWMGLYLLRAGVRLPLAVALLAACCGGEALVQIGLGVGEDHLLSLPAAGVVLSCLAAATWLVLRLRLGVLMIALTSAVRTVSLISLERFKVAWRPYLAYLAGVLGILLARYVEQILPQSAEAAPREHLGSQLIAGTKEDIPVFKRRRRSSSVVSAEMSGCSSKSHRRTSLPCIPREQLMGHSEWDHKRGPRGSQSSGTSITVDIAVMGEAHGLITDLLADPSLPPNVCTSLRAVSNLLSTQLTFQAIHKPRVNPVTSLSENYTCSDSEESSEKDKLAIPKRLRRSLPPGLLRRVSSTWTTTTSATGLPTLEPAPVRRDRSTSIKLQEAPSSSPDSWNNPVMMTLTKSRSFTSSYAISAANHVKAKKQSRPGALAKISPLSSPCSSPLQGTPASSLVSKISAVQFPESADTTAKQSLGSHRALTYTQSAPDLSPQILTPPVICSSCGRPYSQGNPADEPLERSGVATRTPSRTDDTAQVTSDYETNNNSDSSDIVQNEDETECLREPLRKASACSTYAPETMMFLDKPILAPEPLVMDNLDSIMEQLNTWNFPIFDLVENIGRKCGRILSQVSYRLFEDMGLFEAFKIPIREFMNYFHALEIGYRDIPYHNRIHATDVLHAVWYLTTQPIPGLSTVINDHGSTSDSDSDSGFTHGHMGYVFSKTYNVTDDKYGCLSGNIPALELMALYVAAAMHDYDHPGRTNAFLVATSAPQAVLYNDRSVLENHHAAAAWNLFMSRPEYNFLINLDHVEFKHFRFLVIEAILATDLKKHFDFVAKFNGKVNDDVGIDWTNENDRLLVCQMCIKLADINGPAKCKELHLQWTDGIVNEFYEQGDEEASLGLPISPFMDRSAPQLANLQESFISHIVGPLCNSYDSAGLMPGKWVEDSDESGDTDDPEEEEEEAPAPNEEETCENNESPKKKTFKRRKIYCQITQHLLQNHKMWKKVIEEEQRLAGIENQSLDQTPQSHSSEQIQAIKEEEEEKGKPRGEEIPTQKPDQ
Sequence of Adenosine receptor A2a (P29274 whole entry): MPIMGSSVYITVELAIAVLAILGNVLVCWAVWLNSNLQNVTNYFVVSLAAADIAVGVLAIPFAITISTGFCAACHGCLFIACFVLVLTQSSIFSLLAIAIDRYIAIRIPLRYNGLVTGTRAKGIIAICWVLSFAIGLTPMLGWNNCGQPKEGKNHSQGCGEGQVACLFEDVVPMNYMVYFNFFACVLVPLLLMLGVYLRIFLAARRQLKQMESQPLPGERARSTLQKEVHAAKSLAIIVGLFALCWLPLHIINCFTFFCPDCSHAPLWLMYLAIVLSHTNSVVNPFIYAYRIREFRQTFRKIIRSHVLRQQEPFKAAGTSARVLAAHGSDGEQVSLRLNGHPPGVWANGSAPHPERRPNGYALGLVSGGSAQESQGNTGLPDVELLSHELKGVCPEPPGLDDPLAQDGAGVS
Sequence of Histamine H3 receptor (Q9Y5N1 whole entry): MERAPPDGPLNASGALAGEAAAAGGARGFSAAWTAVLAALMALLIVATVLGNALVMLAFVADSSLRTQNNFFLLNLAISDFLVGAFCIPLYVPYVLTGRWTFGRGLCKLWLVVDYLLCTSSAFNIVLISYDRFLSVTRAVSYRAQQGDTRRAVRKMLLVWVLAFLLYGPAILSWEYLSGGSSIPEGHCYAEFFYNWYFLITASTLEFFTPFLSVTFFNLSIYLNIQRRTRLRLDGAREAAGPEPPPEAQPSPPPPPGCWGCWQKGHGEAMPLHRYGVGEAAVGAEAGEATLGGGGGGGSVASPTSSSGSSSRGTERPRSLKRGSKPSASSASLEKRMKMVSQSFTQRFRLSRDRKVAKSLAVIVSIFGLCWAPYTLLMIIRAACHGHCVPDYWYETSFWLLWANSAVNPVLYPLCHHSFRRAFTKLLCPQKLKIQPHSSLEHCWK

| Compound | AC50 [1] [µM] | AC50 [2] [µM] | AC50 [3] [µM] | AC50 [4] [µM] | AC50 [5] [µM] | AC50 [6] [µM] | also measured |
| --- | --- | --- | --- | --- | --- | --- | --- |
| O=C(O)c1cc(/N=N/c2ccc(O)c(C(=O)O)c2)ccc1O [OLSALAZINE] | > 30 |  |  |  |  |  |  |
| FC(F)(F)c1ccc(CNc2ccc(Cc3c[nH]c4ncc(Cl)cc34)cn2)cn1 [PEXIDARTINIB] | 3.69 |  |  |  |  |  |  |
| CC(C)C[C@H](NC(=O)CNC(=O)c1cc(Cl)ccc1Cl)B(O)O [IXAZOMIB] | > 30 |  |  |  |  |  |  |
| CC(CN1CC(=O)NC(=O)C1)N1CC(=O)NC(=O)C1 (configuration not stated) [RAZOXANE] | > 30 |  |  |  |  |  |  |
| O=C1/C(=C2\Nc3ccc(S(=O)(=O)O)cc3C2=O)Nc2ccc(S(=O)(=O)O)cc21 [INDIGOTINDISULFONATE] | 0.995 |  |  |  |  |  |  |
| C[C@H](CCC(=O)O)[C@H]1CC[C@H]2[C@@H]3[C@@H](O)C[C@@H]4C[C@H](O)CC[C@]4(C)[C@H]3CC[C@]12C [URSODIOL] |  | > 30 | > 30 | > 30 | > 30 | > 30 |  |
| OC[C@H]1O[C@@H](c2ccc(F)c(Cc3cc4ccccc4s3)c2)[C@H](O)[C@@H](O)[C@@H]1O [IPRAGLIFLOZIN] | > 30 |  |  |  |  |  |  |
| CN(CC1(C)CCCO1)S(=O)(=O)c1ccc(Cl)c(S(N)(=O)=O)c1 (configuration not stated) [MEFRUSIDE] |  | > 30 |  | > 30 |  |  |  |
| CCn1cc(C(=O)O)c(=O)c2cc3c(cc21)OCO3 [OXOLINIC ACID] | > 30 |  |  |  |  |  |  |
| CC[C@H](c1ccc(O)cc1)[C@@H](CC)c1ccc(O)cc1 [HEXESTROL] | 8.47 |  |  |  |  |  |  |
| CCOC(=O)C1=C[C@@H](OC(CC)CC)[C@H](NC(C)=O)[C@@H](N)C1 [OSELTAMIVIR] | > 30 |  |  |  |  |  |  |
| CN1CCC(=C2c3ccccc3Sc3ccccc32)CC1 [PIMETHIXENE] | 25.9 |  |  |  |  |  |  |
| C[C@H]1O[C@@H](n2cc(F)c(=O)[nH]c2=O)[C@H](O)[C@@H]1O [DOXIFLURIDINE] | > 30 |  |  |  |  |  |  |
| C[C@@H](NCCCc1cccc(C(F)(F)F)c1)c1cccc2ccccc12 |  | > 30 | > 30 | > 30 | > 30 | > 30 | AC50 ([7]; read-out: AC50): > 10 µM; AC50 [8]: > 30 µM; AC50 [9]: 20 µM |
| CC[C@H]1OC(=O)[C@H](C)C(=O)[C@H](C)[C@@H](O[C@@H]2O[C@H](C)C[C@H](N(C)C)[C@H]2O)[C@](C)(OC)C[C@@H](C)C(=O)[C@H](C)[C@H]2N(CCCCn3cnc(-c4cccnc4)c3)C(=O)O[C@]12C [TELITHROMYCIN] | > 30 |  |  |  |  |  |  |
| CN1CCCCC1CCN1c2ccccc2Sc2ccc([S+](C)[O-])cc21 (configuration not stated) [MESORIDAZINE] | > 30 |  |  |  |  |  |  |
| N[C@@H](CO)C(=O)O [SERINE] | > 30 |  |  |  |  |  |  |

| Compound | AC50 [1] [µM] | AC50 [2] [µM] | AC50 [3] [µM] | AC50 [4] [µM] | AC50 [5] [µM] | AC50 [6] [µM] | also measured |
| --- | --- | --- | --- | --- | --- | --- | --- |
| CC(=O)O[C@]1(C(C)=O)CC[C@H]2[C@@H]3C=C(C)C4=CC(=O)CC[C@@H]4[C@H]3CC[C@@]21C [NOMEGESTROL ACETATE] |  | > 30 |  | > 30 |  | > 30 |  |
| C#C[C@]1(O)CC[C@H]2[C@@H]3CCC4=CC(=O)CC[C@@H]4[C@H]3C(=C)C[C@@]21CC [ETONOGESTREL] |  | > 30 |  | > 30 |  |  |  |
| OC[C@H]1O[C@@H](c2ccc(Cl)c(Cc3ccc(O[C@H]4CCOC4)cc3)c2)[C@H](O)[C@@H](O)[C@@H]1O [EMPAGLIFLOZIN] | > 30 |  |  |  |  |  |  |
| CC(=O)Oc1cc(C(F)(F)F)ccc1C(=O)O [TRIFLUSAL] | > 30 |  |  |  |  |  |  |
| [H]/N=C(\N/C(=N/[H])Nc1ccc(Cl)cc1)NC(C)C [PROGUANIL] | > 30 |  |  |  |  |  |  |
| CN(C)CC[C@@H](c1ccc(Cl)cc1)c1ccccn1 [DEXCHLORPHENIRAMINE] |  | > 10 | > 30 | > 30 | 6.3 | > 30 | AC50 ([7]; read-out: AC50): > 30 µM; AC50 [8]: > 30 µM; AC50 [9]: > 30 µM |
| CN1C[C@H](C(=O)N[C@]2(C)O[C@@]3(O)[C@@H]4CCCN4C(=O)[C@H](Cc4ccccc4)N3C2=O)C=C2c3cccc4[nH]cc(c34)C[C@H]21 [ERGOTAMINE] |  | > 30 | > 30 | 0.3 | > 30 | > 30 | AC50 [8]: > 30 µM |
| C[C@@H]1C[C@H]2[C@@H]3CCC4=CC(=O)C=C[C@]4(C)[C@@]3(Cl)[C@@H](O)C[C@]2(C)[C@@]1(OC(=O)c1ccco1)C(=O)CCl [MOMETASONE FUROATE] | 1.64 |  |  |  |  |  |  |
| CNC(=O)Oc1cccc2ccccc12 [CARBARIL] | > 30 |  |  |  |  |  |  |
| CC(C)c1nc(N(C)S(C)(=O)=O)nc(-c2ccc(F)cc2)c1/C=C/[C@@H](O)C[C@@H](O)CC(=O)O [ROSUVASTATIN] |  | > 30 | > 30 | > 30 | > 30 | > 30 | AC50 ([7]; read-out: AC50): > 30 µM; AC50 [8]: > 30 µM; AC50 [9]: > 30 µM |
| CCN(CC)CCNC(=O)c1c(C)[nH]c(/C=C2\C(=O)Nc3ccc(F)cc32)c1C [SUNITINIB] |  | 18 | 6.4 | 24 | 0.88 | 5.3 | AC50 [7]: 6.9 µM; AC50 [9]: 5.4 µM |
| OC[C@H]1O[C@@](CO)(O[C@H]2O[C@H](CO)[C@@H](O)[C@H](O)[C@H]2O)[C@@H](O)[C@@H]1O [SUCROSE] |  | > 30 | > 30 | > 30 | > 30 | > 30 | AC50 ([7]; read-out: AC50): > 30 µM; AC50 [8]: > 30 µM; AC50 [9]: > 30 µM |
| CC(S)C(=O)NCC(=O)O (configuration not stated) [TIOPRONIN] |  | > 30 | > 30 | > 30 | > 30 | > 30 | AC50 [8]: > 30 µM |
| CN(C)CCC[C@@]1(c2ccc(F)cc2)OCc2cc(C#N)ccc21 [ESCITALOPRAM] |  | > 30 | > 30 | > 30 | > 30 | > 30 | AC50 ([7]; read-out: AC50): > 30 µM; AC50 [8]: > 30 µM; AC50 [9]: > 30 µM |
| CCN1CCN(Cc2ccc(Nc3ncc(F)c(-c4cc(F)c5nc(C)n(C(C)C)c5c4)n3)nc2)CC1 [ABEMACICLIB] |  | > 30 | > 30 | > 30 | 0.31 | > 30 | AC50 [8]: > 30 µM |
| CC(C)(C)NCC(O)c1cc(O)cc(O)c1 (configuration not stated) [TERBUTALINE] |  |  | > 30 |  | > 30 | > 30 | AC50 ([7]; read-out: AC50): > 30 µM; AC50 [8]: > 30 µM; AC50 [9]: > 30 µM |
